Laboratory results taken from US8153791B2, “Substituted pyrimidinyl oxime kinase inhibitors” (Janssen Pharmaceutica N.V., priority 2005, dated 2012).
Like-named read-outs stand apart in the source and are kept apart here.

Experiments:
[1] = tested on: N87 gastric carcinoma cells; experiment: N87 Human Tumor Xenograft Model; assay type: in vivo, nu/nu mice; details: treatment groups 5-10, 100 mg/kg oral once daily for 30 days
Text: The N87 gastric carcinoma cell line overexpresses HER-2 as a result of gene amplification and forms tumors in nude mice (Kasprzyk P G, Song S U, Di Fiore P P, King C R, Therapy of an animal model of human gastric cancer using a combination of anti-erbB-2 monoclonal antibodies, Cancer Res., 1992, 52, 2771-2776).
Female nu/nu mice (Charles River; 8 to 9 weeks of age) were implanted subcutaneously with from 3×10^6 to 5×10^6 N87 gastric carcinoma cells (obtained from the American Type Culture Collection, ATCC Cat. #CRL-5822) in the flank. Animals were weighed twice weekly during the study and examined frequently.
Tumor size was monitored twice weekly and then daily as the neoplasms reached the target weight range (about 75 mg). Animals were pair-matched when tumors were in the 62 to 126 mg range (group mean tumor size: 70 to 74 mg). Estimated tumor weight was calculated using the formula: […]
A test compound was orally administered daily in the test treatment group after the tumor reached the target weight. For treatment group 1, the test compound was administered once daily for 35 days. For treatment group 2, the test compound was administered once daily for 30 days. For treatment group 3, each dose of test compound was administered once daily for 30 days. For treatment group 4, each dose of test compound was administered once daily for 36 days. For treatment group 5-10, the test compound was administered once daily for 30 days.
Tumor weight was measured daily for subjects (n=8) in the test group and the matched subjects (n=8) in the vehicle-treated group.
The tumor growth inhibition (in percent) was calculated on the last day of the study using the formula: […]
(§1) Statistical significance was evaluated by comparing the vehicle group to the test group using a two tailed Students t test. The term “NC” means that the P value for the treatment group indicated was not calculated. The lack of such calculation is not intended to imply a belief that the activity of the compound is not otherwise statistically significant in this particular cell line or in any other cell line not tested.

[2] = tested on: A431 epidermoid carcinoma cells; experiment: A431 Human Tumor Xenograft Model; assay type: in vivo, nu/nu mice; details: treatment groups 5-10, 100 mg/kg oral once daily for 30 days
Text: The A431 epidermoid carcinoma cell line overexpresses EGFR, activating signaling pathways responsible for driving the proliferation, invasion and survival of cancer cells and forming tumors in nude mice (Giard D J, Aaronson S A, Todaro G J, Arnstein P, Kersey J H, Dosik H, Parks W P, In vitro cultivation of human tumors: establishment of cell lines derived from a series of solid tumors, J. Natl. Cancer Inst., 1973, 51, 1417-1423; and, Kawamoto T, Sato J D, Le A, Polikoff J, Sato G H, Mendelsohn J, Growth stimulation of A431 cells by epidermal growth factor: identification of high-affinity receptors for epidermal growth factor by an anti-receptor monoclonal antibody, Proc. Natl. Acad. Sci. USA, 1983, 80, 1337-1341).
Female nu/nu mice (Charles River; 8 to 9 weeks of age) were implanted subcutaneously in the flank with 4×10^6 A431 epidermoid carcinoma cells (obtained from the American Type Culture Collection, ATCC Cat. #CRL-1555). Animals were weighed twice weekly during the study and examined frequently.
Tumor size was monitored twice weekly and then daily as the neoplasms reached the target weight range (about 75 mg). Animals were pair-matched when tumors were in the 62 to 126 mg range (group mean tumor size: 70 to 74 mg). Estimated tumor weight was calculated using the formula of Example 4.
A test compound was orally administered daily in the test treatment group after the tumor reached the target weight. For treatment groups 1 and 2, each dose of test compound was administered once daily for 25 days. For treatment group 3, each dose of test compound was administered twice daily for 25 days. For treatment group 4, the test compound was administered twice daily for 30 days. For treatment group 5-10, the test compound was administered once daily for 30 days.
as §1

[3] = target: T1, HER-2 (Homo sapiens, UniProt P04626); experiment: HER-2 Kinase Assay; assay type: biochemical; details: read-out: HER2 IC50;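 also: HER2 kinase reaction read by scintillation counting, inhibition scaled between maximum and minimum signals set on each plate, IC50 from inhibition against log concentration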
T1 construct: purchased Proqinase (Freiburg, Germany)

[4] = tested on: HeLa cervical adenocarcinoma; experiment: In vitro cell proliferation inhibition, HeLa; assay type: cell-based; details: Homo sapiens; HeLa cell line; ATP-Lite method or C14 thymidine method; read-out: HeLa IC50
Text: (§2) The ability of a test compound to inhibit unregulated in vitro cell proliferation may be determined by measuring incorporation of ^14C-labelled thymidine into newly synthesized DNA within cell lines derived from carcinomas originating from several tissues. Accordingly, the effect of a test compound on proliferation of cells with a variety of phenotypes may be determined.
(§3) Carcinoma cell lines used include the HeLa cervical adenocarcinoma from the American Type Culture Collection (ATCC Cat. #CCL2), SK-OV-3 ovarian carcinoma (ATCC Cat. #HTB-77), MCF-7 breast carcinoma (ATCC Cat. #HTB-22), BT474 breast carcinoma (ATCC Cat. #HTB-20), SKBR3 breast carcinoma (ATCC Cat. #HTB-30), A431 epidermoid carcinoma (ATCC Cat. #CRL-1555) and NCI-N87 gastric carcinoma (ATCC Cat. #CRL-5822).
(§4) The carcinoma cells are trypsinized and counted. The cells (3000-8000 count) are added to each well of a 96-well CytoStar tissue culture treated scintillating microplate (Amersham #RPNQ0160) in complete medium (100 μL) and the plate is then incubated in complete medium for 24 hrs at 37° C. in an inert atmosphere containing 5% CO2.
(§5) Test compound (1 μL) in 100% DMSO is added to the plate test-wells with DMSO only added to control-wells. The plate is incubated in complete medium for a second 24 hr period at 37° C. in an atmosphere containing 5% CO2.
(§6) An aliquot of a solution of Methyl ^14C-thymidine (56 mC/mmol) (NEN #NEC568 or Amersham #CFA532) and complete medium (20 μL to provide 0.2 μCi/well) is then added to each well and the plate is incubated for a third 24 hr period at 37° C. in an atmosphere containing 5% CO2.
(§7) The plate contents are then discarded, the plate is washed twice with PBS (200 μL) and then PBS (200 μL) is added to each well. The plate is sealed and the degree of methyl ^14C-thymidine incorporation is quantified on a Packard Top Count.
(§8) Cell proliferation of the Hela cell line was measured using the ATP-Lite method as described in the ATP Lite Kit (Perkin-Elmer Kit Number 6106941) or the C^14 method as described above. Cell proliferation of the other cell lines was measured using the C^14 method.
(§9) The term “NT” means that the compound indicated was not tested in a particular cell line. The lack of such testing is not intended to imply a belief that the compound is not otherwise active in a particular cell line or any other cell line not tested.

[5] = tested on: BT474 breast carcinoma; experiment: In vitro cell proliferation inhibition, BT474; assay type: cell-based; details: Homo sapiens, BT-474; BT474 cells, 14C-thymidine incorporation; read-out: IC50 BT474
Text: as §2, §3, §4, §5, §6, §7, §8, §9

[6] = tested on: SKBR3 breast carcinoma; experiment: In vitro cell proliferation inhibition, SKBR3; assay type: cell-based; details: Homo sapiens, SK-BR-3; SKBR3 cells, 14C-thymidine incorporation; read-out: IC50 SKBR3
Text: as §2, §3, §4, §5, §6, §7, §8, §9

[7] = tested on: A431 epidermoid carcinoma; experiment: In vitro cell proliferation inhibition, A431; assay type: cell-based; details: Homo sapiens, A-431; A431 cells, 14C-thymidine incorporation; read-out: IC50 A431
Text: as §2, §3, §4, §5, §6, §7, §8, §9

[8] = tested on: NCI-N87 gastric carcinoma; experiment: In vitro cell proliferation inhibition, NCI-N87; assay type: cell-based; details: Homo sapiens, NCI-N87; N87 cells, 14C-thymidine incorporation; read-out: IC50 N87
Text: as §2, §3, §4, §5, §6, §7, §8, §9

[9] = target: T2, EGFR (Homo sapiens, UniProt P00533); experiment: EGFR Kinase Assay; assay type: biochemical;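 also: recombinant GST-tagged EGFR expressed in Sf9 cells, phosphorylating biotinylated polyGluTyr with γ-33P ATP on Streptavidin Flashplates, 1 h at 30 °C, scintillation counting, inhibition relative to plate maximum and minimum signals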
T2 construct: The intracellular portion of EGFR started at nucleotide 2189 (corresponding to amino acid 667) and ended at the termination codon; made in house; host or cells: Sf9 insect cells (baculovirus)

[10] = tested on: SK-OV-3 ovarian carcinoma; experiment: In vitro cell proliferation inhibition, SK-OV-3; assay type: cell-based; details: Homo sapiens; SK-OV-3 cells, 14C-thymidine incorporation
Text: as §2, §3, §4, §5, §6, §7, §8, §9

[11] = tested on: MCF-7 breast carcinoma; experiment: In vitro cell proliferation inhibition, MCF-7; assay type: cell-based; details: Homo sapiens, MCF7; MCF-7 cells, 14C-thymidine incorporation
Text: as §2, §3, §4, §5, §6, §7, §8, §9

[12] = Blood-Brain Barrier Penetration (concentration in plasma and brain); assay type: in vivo, Sprague Dawley rats; details: male, Sprague Dawley, rat; for concentration at 60 min: male Sprague Dawley rats; for concentration at 120 min: 120 min (brain)
Protocol: The blood-brain barrier penetration of Compound 78 was examined in male Sprague Dawley rats following i.v. (3 mg/kg) or oral (10 mg/kg) administration.
The i.v. formulation consisted of a 1 mg/mL dose in vehicle (10% solutol in D5W at pH 3) with plasma samples drawn at 0.25 hours, 0.5 hours and 1 hour after administration.
The oral (p.o) formulation consisted of a 1 mg/mL dose in vehicle (0.5% methylcellulose) with plasma samples drawn at 0.5 hours, 1 hour and 2 hours after administration.
The plasma samples (0.5 ml) were collected and centrifuged (2000 rpm, 3 min), then stored at −60° C. until LC-MS/MS analysis. Brain samples were collected immediately after the last blood sample collection. The samples were rinsed with 0.9% NaCl, patted dry, then weighed and placed in Falcon 14 mL polypropylene round-bottom tubes containing 3 mL methanol. The methanolic mixtures were homogenized with an OMNI TH115 homogenizer then centrifuged for 10 minutes at 7,000 rpm. The supernatant was removed and stored frozen in 15 mL polyethylene tubes at −60° C. until LC-MS/MS analysis.

T1 sequence (P04626 679-1255): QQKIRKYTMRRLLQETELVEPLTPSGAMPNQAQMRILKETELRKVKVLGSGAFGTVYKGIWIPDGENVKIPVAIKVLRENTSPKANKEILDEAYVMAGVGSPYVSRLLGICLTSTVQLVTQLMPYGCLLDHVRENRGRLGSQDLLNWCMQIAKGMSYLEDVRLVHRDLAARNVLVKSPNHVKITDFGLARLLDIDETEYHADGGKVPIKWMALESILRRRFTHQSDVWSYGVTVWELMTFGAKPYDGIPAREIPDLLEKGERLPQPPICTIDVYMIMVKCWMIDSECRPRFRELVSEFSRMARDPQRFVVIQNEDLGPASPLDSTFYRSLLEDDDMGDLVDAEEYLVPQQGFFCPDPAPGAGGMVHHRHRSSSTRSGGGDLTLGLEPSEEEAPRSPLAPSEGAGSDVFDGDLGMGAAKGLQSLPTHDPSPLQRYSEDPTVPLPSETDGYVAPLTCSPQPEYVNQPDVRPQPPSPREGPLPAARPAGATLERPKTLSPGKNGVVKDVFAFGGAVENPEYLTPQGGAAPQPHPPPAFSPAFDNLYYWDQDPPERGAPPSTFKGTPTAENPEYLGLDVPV
T2 sequence (P00533 669-1210 limits assumed): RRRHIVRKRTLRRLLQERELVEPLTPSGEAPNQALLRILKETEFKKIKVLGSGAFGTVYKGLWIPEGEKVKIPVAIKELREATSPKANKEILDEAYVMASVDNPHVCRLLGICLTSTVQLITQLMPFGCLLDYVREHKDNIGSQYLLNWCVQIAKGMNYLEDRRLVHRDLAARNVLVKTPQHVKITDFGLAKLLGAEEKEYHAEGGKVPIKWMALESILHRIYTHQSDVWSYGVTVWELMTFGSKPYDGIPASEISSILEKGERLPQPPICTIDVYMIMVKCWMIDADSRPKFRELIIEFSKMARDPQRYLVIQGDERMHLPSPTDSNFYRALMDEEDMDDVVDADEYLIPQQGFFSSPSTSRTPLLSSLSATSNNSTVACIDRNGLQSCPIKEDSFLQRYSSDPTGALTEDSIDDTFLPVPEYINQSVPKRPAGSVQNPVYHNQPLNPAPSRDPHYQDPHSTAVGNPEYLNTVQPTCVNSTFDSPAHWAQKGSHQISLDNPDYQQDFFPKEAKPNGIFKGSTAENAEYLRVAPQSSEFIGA

SMILES	N87 Tumor Growth Inhibition TGI [1]	A431 Tumor Growth Inhibition TGI [2]	IC50 [3]	IC50 [4]	IC50 [5]	IC50 [6]	IC50 [7]	IC50 [8]	IC50 [9]	IC50 [10]	IC50 [11]	concentration at 60 min ([12]; brain, iv, 3 mg/kg, i.v. 3 mg/kg, 60 min (brain), read-out: Concentration in Brain, Mean ± SEM)	concentration at 120 min ([12]; brain, po, 10 mg/kg, p.o. 10 mg/kg, first of two lines so labelled, read-out: Concentration in Brain, Mean ± SEM)	concentration at 120 min ([12]; brain, po, 10 mg/kg, p.o. 10 mg/kg, second of two lines so labelled, read-out: Concentration in Brain, Mean ± SEM)	Kp at 1 h ([12]; brain/plasma, iv, i.v. 3 mg/kg, 60 min, read-out: Brain/Plasma Ratio)	Kp at 2 h ([12]; brain/plasma, po, p.o. 10 mg/kg, read-out: Brain/Plasma Ratio)	concentration at 60 min ([12]; plasma, iv, 3 mg/kg, i.v. 3 mg/kg, 60 min (plasma), read-out: Concentration in Plasma, Mean ± SEM)	concentration at 60 min ([12]; plasma, po, 10 mg/kg, p.o. 10 mg/kg, 60 min (plasma), read-out: Concentration in Plasma, Mean ± SEM)
COCCNCCCO/N=C/c1c(N)ncnc1Nc1ccc(OCc2ccccc2)c(Cl)c1 [Cpd 115, (5E)-4-amino-6-(4-benzyloxy-3-chloro-phenylamino)-pyrimidine-5-carbaldehyde O-[3-(2-methoxy-ethylamino)-propyl]-oxime]	50.2%	4%	–	–	–	–	–	–	–	–	–	–	–	–	–	–	–	–
Nc1ncnc(Nc2ccc(OCc3ccccc3)c(Cl)c2)c1/C=N/OCc1ccccn1 [Cpd 114, (5E)-4-amino-6-(4-benzyloxy-3-chloro-phenylamino)-pyrimidine-5-carbaldehyde O-pyridin-2-ylmethyl-oxime]	47%	−3%	–	–	–	–	–	–	–	–	–	–	–	–	–	–	–	–
Nc1ncnc(Nc2ccc3c(ccn3Cc3cccc(F)c3)c2)c1/C=N/OCCN1CCOCC1 [Cpd 101, (5E)-4-amino-6-[1-(3-fluoro-benzyl)-1H-indol-5-ylamino]-pyrimidine-5-carbaldehyde O-(2-morpholin-4-yl-ethyl)-oxime]	66%	51%	60 nM	25.1 µM	50 nM	60 nM	9 nM	30 nM	–	–	–	–	–	–	–	–	–	–
Nc1ncnc(Nc2ccc(OCc3ccccc3)c(Cl)c2)c1/C=N/OCCN1CCOCC1 [Cpd 78]	–	–	60 nM	19.6 µM	60 nM	200 nM	800 nM	200 nM	20 nM	100 µM	100 µM	307 ± 55 ng/g	46.1 ± 17.4 ng/g	51.2 ± 13.7 ng/g	2.5	1.2	124 ± 5.5 ng/mL	73.6 ± 16.4 ng/mL
Nc1ncnc(Nc2ccc(OCc3ccccc3)c(Cl)c2)c1/C=N/OCCCN1CCOCC1 [Cpd 112, (5E)-4-amino-6-(4-benzyloxy-3-chloro-phenylamino)-pyrimidine-5-carbaldehyde O-(3-morpholin-4-yl-propyl)-oxime]	48.6%	33%	–	–	–	–	–	–	20 nM	–	–	–	–	–	–	–	–	–
Nc1ncnc(Nc2ccc3c(cnn3Cc3cccc(F)c3)c2)c1/C=N/OCCN1CCOCC1 [Cpd 19, (5E)-4-amino-6-[1-(3-fluoro-benzyl)-1H-indazol-5-ylamino]-pyrimidine-5-carbaldehyde O-(2-morpholin-4-yl-ethyl)-oxime]	–	–	50 nM	10 µM	30 nM	100 nM	1100 nM	40 nM	20 nM	19.1 µM	2.5 µM	–	–	–	–	–	–	–
Nc1ncnc(Nc2ccc3c(ccn3Cc3cccc(F)c3)c2)c1/C=N/OCCCO [Cpd 91, (5E)-4-amino-6-[1-(3-fluoro-benzyl)-1H-indol-5-ylamino]-pyrimidine-5-carbaldehyde O-(3-hydroxy-propyl)-oxime]	–	–	30 nM	9.4 µM	200 nM	300 nM	1300 nM	200 nM	7 nM	5.4 µM	10 µM	–	–	–	–	–	–	–
